From US7964104B2, “Active antiseptic water or active water-based fluid, and production method and apparatus for the same” (Japan Techno Co., Ltd., priority 2003, dated 2011)

Conditions: level of nitrite and sulfite ions in the water

In the case of nitrite and sulfite ions, the “Level at which the antiseptic effect is inadequate” value is reported as “less than 0.08 mg/L”.
